According to patent publication US20060211705A1, “'N-(2-chloro-6-methylphenyl)-2-[[6-[4-(2-hydroxyethyl)-1-piperazinyl]-2-methyl-4-pyrimidinyl]amino]-5-thiazolecarboxamides metabolites” (priority 2005, published 2006):

Columns and labels:
[1] = Metabolite profile of [14C] compound (I) in human hepatocyte incubations; format: in vitro ADME; conditions: (Ia) 20 μM, 3 h, 37° C., ~2 million cells/mL; relative distribution in radiochromatographic profile
Description: (§1) The compound of formula (I) was used as the [^14C] compound (Ia) (30.4 μCi/mg, radiochemical purity 99.2%), as the monohydrate of the free base. The C-14 label was on the carbon in the 2-position of the thiazole ring.
(§2) Freshly isolated rat hepatocyte preparations were prepared from one male Sprague-Dawley rat. Rat Hepatocytes were prepared according to a standard procedure (Seglen, PO. Preparation of isolated rat liver cells. Methods Cell Biol., 1976, 13: 29-83). Cryopreserved cynomolgus monkey hepatocytes (male, pooled, n=6) and human hepatocytes (3 individual preparation) were purchased from In Vitro Technologies (Baltimore, Md.). Microsomes from male SD Rats (pooled, n=200, 20 mg/mL) and male cynomolgus monkeys (pooled, n=8, 20 mg/mL) were obtained from Xenotech LLC, Kansas City, Kans. Human liver microsomes (male, pooled, n=38) were from BD-Gentest, Woburn, Mass.
(§3) A 6 mM stock solution of the compound of formula (Ia) (the [^14C] of the compound of formula (I) was prepared at by dissolving 3.7 mg of the compound of formula (Ia) into 1:1 acetonitrile/DMSO. The 2 mM stock solution of the compound of formula (Ia) was obtained by diluting an aliquot of the 6 mM stock solution 3-fold with acetonitrile.
Human (3 vials from 3 individuals) and monkey cryopreserved hepatocytes were thawed according to the procedure provided by In Vitro Technologies. Briefly, the caps of the cryovials were loosened to release any trapped liquid nitrogen and kept on ice for 2 min. The caps were tightened and the vials were immersed in a 37° C. water bath for 75-90 sec with gentle shaking. The thawed samples (3 cryovials/[…] for each 50 mL tube) were transferred into 25 mL pre-warmed Krebs-Henseleit buffer in a 50 mL tube and gently inverted. The suspensions were evenly divided into 2 tubes and diluted to 40 mL with pre-warmed Krebs-Henseleit buffer. The tubes were centrifuged in an Eppendorf 5810R centrifuge (Hamburg, Germany) at 200 rpm at 4° C. for 10 min. The supernatant was discarded and the pellet gently suspended in 2 mL of Krebs-Henseleit buffer. All the tubes were combined into one tube, rinsing the empty tubes with 1 mL Krebs-Henseleit buffer. The cells were counted, checked for viability and diluted accordingly with modified Krebs-Henseleit buffer to give a final concentration of 2 million viable cells/mL.
Viability of the hepatocytes was checked using a Trypan Blue exclusion assay and a hemocytometer. A mixture of 0.1 mL of the hepatocyte suspension and 0.1 mL of trypan blue solution were diluted with 0.8 mL of Krebs-Henseleit buffer. The solution was gently mixed and plated onto a Levy hemocytometer (Hausser Scientific) and the viable cells (unstained) were counted under a light microscope. The viability of the hepatocytes ranged from 77% to 90% at the beginning of the incubations.
(§4) Hepatocyte incubations were conducted at 37° C. for 3 h in a NAPCO CO2 6000 incubator (VWR Scientific Products) under a 5% CO2 atmosphere using an orbital shaker at 90 rpm. For each incubation, the final concentration of compound (Ia) was 20 μM and the hepatocyte concentrations were ˜2 million cells/mL. A control incubation, in the absence of hepatocytes, was also performed for 3 h. The incubations were stopped by adding one volume of ice-cold acetonitrile. Each 0.5 mL incubation contained 0.1 M potassium phosphate buffer (pH 7.4), 2.5 mM MgCl2, 2 mg/mL microsomal protein, and 2.0 mM NADPH. The final substrate concentration was 20 μM. The mixtures were incubated in a shaking water bath at 37° C. for 15 min. Control incubations in the absence of microsomes or NADPH were performed for each species. The reactions were stopped with the addition of 1 mL of ice-cold acetonitrile.
HPLC was performed on a Waters Alliance™ system equipped with Waters 2695 pumps and a photodiode array detector (Waters 2996). A Phenomenex Synergy Polar-RP® column (4.6×250 mm, 5 micron) was used for metabolite separation. […]

[2] = Metabolite profile of [14C] compound (I) in human liver microsome incubations; format: in vitro ADME; conditions: (Ia) 20 μM, 15 min, 37° C., 2 mg/mL microsomal protein, 2.0 mM NADPH
Description: as §1, §2, §3, §4
HPLC was performed on a Waters Alliance™ system equipped with Waters 2695 pumps and a photodiode array detector (Waters 2996). A Phenomenex Synergy Polar-RP® column (4.6×250 mm, 5 micron) was used for metabolite separation. All HPLC analyses were performed at 1 mL/min flow rate at room temperature. Two HPLC mobile phase and gradient systems were used because all metabolites could not be completely separated on either of the individual HPLC systems. The first system consisted of (A) water with 0.1% formic acid and (B) acetonitrile with 0.1% formic acid as mobile phase. The linear gradient was as follows: 0 min, 20% B; 1 min, 20% B; 41 min, 35% B; 42 min, 90% B; 44 min, 90% B. The column was re-equilibrated at 20% B for 6 min before the next injection. The second HPLC system was used to separate certain co-eluting metabolites that could not be separated by the first system. The mobile phase consisted of (A) water with 0.1% triflouroacetic acid (TFA) and (B) acetonitrile with 0.1% TFA. The gradient was as follows: 0 min, 20% B; 1 min, 20% B; 51 min, 35% B; 52 min, 90% B; 54 min 90% B. The column was equilibrated at 20% B for 6 min prior to the next injection.
On-line radioactivity detection (RAD) was conducted using an INUS β-RAM detector (Model 3, INUS, Tampa, Fla.). The β-RAM was operated with a 500 μL liquid flow cell in the homogeneous liquid scintillation counting mode. A flow rate of 2 mL/min of scintillation cocktail was mixed with the HPLC effluent. The effluent from HPLC was split to the β-RAM detector (90%) and the mass spectrometer (10%) by adjusting the length and diameter of post column tubings. The β-RAM detector provided integrated output detailing the percentage and amount of radioactivity under each radioactive peak.
Hepatocyte and liver microsomal incubations were quenched with acetonitrile and were vortex-mixed for 3 min. […]

Row | SMILES | % of Radioactivity in Hepatocytes, Human [1] [%] | % of Radioactivity in Microsomes, Human [2] [%]
1 | Cc1nc(Nc2ncc(C(=O)Nc3c(C)cccc3Cl)s2)cc(N2CC[N+]([O-])(CCO)CC2)n1 [M5 (III)] | 2.3 | 4.0
2 | Cc1nc(Nc2ncc(C(=O)Nc3c(C)cccc3Cl)s2)cc(N2CCN(CC(=O)O)CC2)n1 [M6 (IV), 2-(4-(6-(5-((2-Chloro-6-methylphenyl)carbamoyl)thiazol-2-ylamino)-2-methylpyrimidin-4-yl)piperazin-1-yl)acetic acid] | 9.2 | 1.6
3 | Cc1nc(Nc2ncc(C(=O)Nc3c(C)cc(O)cc3Cl)s2)cc(N2CCN(CCO)CC2)n1 [M20 (V)] | 2.6 | 39.2
4 | Cc1nc(Nc2ncc(C(=O)Nc3c(Cl)cccc3CO)s2)cc(N2CCN(CCO)CC2)n1 [M24 (VI), N-(2-chloro-6-(hydroxymethyl)phenyl)-2-(6-(4-(2-hydroxyethyl)piperazin-1-yl)-2-methylpyrimidin-4-ylamino)thiazole-5-carboxamide] | 2.6 | 39.2

Next, values leading:

Row | % of Radioactivity in Hepatocytes, Human [1] [%] | % of Radioactivity in Microsomes, Human [2] [%] | SMILES
5 | 1.0 | 4.0 | Cc1nc(Nc2ncc(C(=O)Nc3c(C)cccc3Cl)s2)cc(N2CCNCC2)n1 [M4 (II)]
6 | 77.7 | 35.5 | Cc1nc(Nc2ncc(C(=O)Nc3c(C)cccc3Cl)s2)cc(N2CCN(CCO)CC2)n1 [Parent (I), N-(2-Chloro-6-methylphenyl)-2-[[6-[4-(2-hydroxyethyl)-1-piperazinyl]-2-methyl-4-pyrimidinyl]amino]-5-thiazolecarboxamide]
